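Cells were grown in 96-well plates and exposed to each compound for 48 hours at five concentrations; endpoints were interpolated linearly between bracketing concentrations, or set to the highest concentration if not reached. Here, GI50 denotes the concentration required for 50% inhibition of growth. TGI denotes the concentration required for complete inhibition of growth.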
What was measured:
Assay in all cases: inhibition of tumour cell growth, NCI panel, 48 h
SK-MEL-28 melanoma = tested on: SK-MEL-28 melanoma
OVCAR-4 ovarian = tested on: OVCAR-4 ovarian
CAKI-1 renal = tested on: CAKI-1 renal
M14 melanoma = tested on: M14 melanoma
KM12 colon = tested on: KM12 colon
HCC-2998 colon = tested on: HCC-2998 colon
MDA-MB-435 = tested on: MDA-MB-435
HT29 colon = tested on: HT29 colon
TK-10 renal = tested on: TK-10 renal
A498 renal = tested on: A498 renal
SF-539 CNS = tested on: SF-539 CNS
HOP-62 NSCLC = tested on: HOP-62 NSCLC
SNB-75 CNS = tested on: SNB-75 CNS
NCI-H522 lung = tested on: NCI-H522 lung
SK-OV-3 ovarian = tested on: SK-OV-3 ovarian
SW-620 colon = tested on: SW-620 colon
SN12C renal = tested on: SN12C renal
SNB-19 CNS = tested on: SNB-19 CNS
U251 CNS = tested on: U251 CNS
786-0 renal = tested on: 786-0 renal
ACHN renal = tested on: ACHN renal
SK-MEL-5 melanoma = tested on: SK-MEL-5 melanoma
OVCAR-8 ovarian = tested on: OVCAR-8 ovarian
UACC-62 melanoma = tested on: UACC-62 melanoma
SK-MEL-2 melanoma = tested on: SK-MEL-2 melanoma
A549 NSCLC = tested on: A549 NSCLC
EKVX NSCLC = tested on: EKVX NSCLC
OVCAR-5 ovarian = tested on: OVCAR-5 ovarian
MCF7 breast = tested on: MCF7 breast
MALME-3M melanoma = tested on: MALME-3M melanoma
HOP-92 NSCLC = tested on: HOP-92 NSCLC
HCT-15 colon = tested on: HCT-15 colon
HL-60(TB) leukemia = tested on: HL-60(TB) leukemia
RXF 393 renal = tested on: RXF 393 renal
NCI-H226 lung = tested on: NCI-H226 lung
OVCAR-3 ovarian = tested on: OVCAR-3 ovarian
SF-295 CNS = tested on: SF-295 CNS
NCI-H460 lung = tested on: NCI-H460 lung
K-562 leukemia = tested on: K-562 leukemia
PC-3 prostate = tested on: PC-3 prostate
RPMI-8226 leukemia = tested on: RPMI-8226 leukemia
NCI/ADR-RES ovarian = tested on: NCI/ADR-RES ovarian
COLO 205 colon = tested on: COLO 205 colon
DU-145 prostate = tested on: DU-145 prostate
HCT-116 colon = tested on: HCT-116 colon
MOLT-4 leukemia = tested on: MOLT-4 leukemia
BT-549 breast = tested on: BT-549 breast
CCRF-CEM leukemia = tested on: CCRF-CEM leukemia
HS 578T breast = tested on: HS 578T breast
SR leukemia = tested on: SR leukemia
UO-31 renal = tested on: UO-31 renal
UACC-257 melanoma = tested on: UACC-257 melanoma
SF-268 CNS = tested on: SF-268 CNS
MDA-MB-231 breast = tested on: MDA-MB-231 breast
LOX IMVI melanoma = tested on: LOX IMVI melanoma
T-47D breast = tested on: T-47D breast
NCI-H23 lung = tested on: NCI-H23 lung
IGROV1 ovarian = tested on: IGROV1 ovarian

## O=c1oc2ccc(F)cc2c(=O)n1-c1ccc(I)cc1F
SK-MEL-28 melanoma
  GI50: 392 nM
  TGI: 1890 nM
OVCAR-4 ovarian
  GI50: 298 nM
CAKI-1 renal
  GI50: 337 nM
  TGI: 2190 nM
M14 melanoma
  GI50: 490 nM
  TGI: 4270 nM
KM12 colon
  GI50: 1920 nM
  TGI: 5380 nM
HCC-2998 colon
  GI50: 3100 nM
  TGI: 9850 nM
MDA-MB-435
  GI50: 419 nM
  TGI: 3940 nM
HT29 colon
  GI50: 3290 nM
  TGI: > 33000 nM
TK-10 renal
  GI50: 1060 nM
  TGI: 17500 nM
A498 renal
  GI50: 191 nM
  TGI: 646 nM
SF-539 CNS
  GI50: 420 nM
  TGI: 5170 nM
HOP-62 NSCLC
  GI50: 916 nM
  TGI: 14900 nM
SNB-75 CNS
  GI50: 368 nM
  TGI: 10400 nM
NCI-H522 lung
  GI50: 322 nM
SK-OV-3 ovarian
  GI50: 522 nM
  TGI: 10500 nM
SW-620 colon
  GI50: 584 nM
  TGI: 13300 nM
SN12C renal
  GI50: 381 nM
  TGI: 5450 nM
SNB-19 CNS
  GI50: 409 nM
  TGI: > 54300 nM
U251 CNS
  GI50: 469 nM
  TGI: > 100000 nM
786-0 renal
  GI50: 1670 nM
  TGI: 8100 nM
ACHN renal
  GI50: 430 nM
  TGI: 7390 nM
SK-MEL-5 melanoma
  GI50: 224 nM
  TGI: 521 nM
OVCAR-8 ovarian
  GI50: 872 nM
  TGI: > 41900 nM
UACC-62 melanoma
  GI50: 293 nM
  TGI: 1100 nM
SK-MEL-2 melanoma
  GI50: 344 nM
  TGI: 1900 nM
A549 NSCLC
  GI50: 2400 nM
  TGI: > 94700 nM
EKVX NSCLC
  GI50: 831 nM
  TGI: 7270 nM
OVCAR-5 ovarian
  GI50: 3400 nM
  TGI: > 54500 nM
MCF7 breast
  GI50: 762 nM
  TGI: 9030 nM
MALME-3M melanoma
  GI50: 305 nM
  TGI: 1170 nM
HOP-92 NSCLC
  GI50: 206 nM
  TGI: 577 nM
HCT-15 colon
  GI50: 471 nM
  TGI: 10900 nM
HL-60(TB) leukemia
  GI50: 366 nM
  TGI: 1830 nM
RXF 393 renal
  GI50: 543 nM
  TGI: 3300 nM
NCI-H226 lung
  GI50: 472 nM
  TGI: 4500 nM
OVCAR-3 ovarian
  GI50: 370 nM
  TGI: 6360 nM
SF-295 CNS
  GI50: 1860 nM
  TGI: 3680 nM
NCI-H460 lung
  GI50: 404 nM
  TGI: 9850 nM
K-562 leukemia
  GI50: 397 nM
  TGI: > 100000 nM
PC-3 prostate
  GI50: 1480 nM
  TGI: 6580 nM
RPMI-8226 leukemia
  GI50: 239 nM
  TGI: 745 nM
NCI/ADR-RES ovarian
  GI50: 522 nM
  TGI: 5890 nM
COLO 205 colon
  GI50: 2670 nM
  TGI: 8820 nM
DU-145 prostate
  GI50: 497 nM
  TGI: 26400 nM
HCT-116 colon
  GI50: 387 nM
  TGI: 2030 nM
MOLT-4 leukemia
  GI50: 1070 nM
  TGI: 3650 nM
BT-549 breast
  GI50: 486 nM
  TGI: 4090 nM
CCRF-CEM leukemia
  GI50: 1830 nM
  TGI: 52000 nM
HS 578T breast
  GI50: 352 nM
  TGI: 2520 nM
SR leukemia
  GI50: 388 nM
  TGI: 11100 nM
UO-31 renal
  GI50: 241 nM
  TGI: 1460 nM
UACC-257 melanoma
  GI50: 432 nM
  TGI: 4790 nM
SF-268 CNS
  GI50: 435 nM
  TGI: 8250 nM
MDA-MB-231 breast
  GI50: 614 nM
  TGI: 3610 nM
LOX IMVI melanoma
  GI50: 374 nM
  TGI: 2290 nM
T-47D breast
  GI50: 290 nM
  TGI: 9240 nM
NCI-H23 lung
  GI50: 311 nM
  TGI: 1590 nM
IGROV1 ovarian
  GI50: 397 nM
  TGI: 15600 nM

From PubChem BioAssay (NCI)
